In brackets after ≈: the same amount, converted by molar mass. Numbered stars: 1 amine (or outer) side, 2 acyl side, 3 side chain; on linkers, the order of the positions; unused ones are H or OH. Square brackets hold non-standard residues; d marks the D form. Peptide text beside a SMILES is read from it. * marks the point of attachment. X3 = O=C(CN(CC(c1ccccc1)c1ccccc1)[*:1])[*:2]; NCyclohexylmethylGly = O=C(O)CNCC1CCCCC1; Pentadecanoyl = CCCCCCCCCCCCCCC(=O)*; NMeR = CN[C@@H](CCCNC(=N)N)C(=O)O; X2 = CCC(C)N(CC(=O)[*:2])[*:1]; NMeK = CN[C@@H](CCCCN)C(=O)O; Nonanoyl = CCCCCCCCC(=O)*; Nphe = O=C(O)CNCc1ccccc1; Nleu = CC(C)CNCC(=O)O

The test system of series [1] is Escherichia coli. Put plainly: Antibacterial activity against Escherichia coli ATCC 25922 assessed as reduction in bacterial growth measured after 24 hrs by Mueller-Hinton broth based two-fold serial dilution method. Type of series: functional.
Series [2] has as its system Staphylococcus aureus. Put plainly: Antibacterial activity against Staphylococcus aureus ATCC 25923 assessed as reduction in bacterial growth measured after 24 hrs by Mueller-Hinton broth based two-fold serial dilution method. The format is functional.
The subject of another series is Erythrocyte. Put plainly: Hemolytic activity in mouse RBC. The format is toxicity, cell-based.
Series [3] concerns Escherichia coli. The series can be described thus: Antimicrobial activity against Escherichia coli assessed as reduction in microbial growth by broth micro-dilution method. The format is functional. (In general: Broth dilution looks for growth in wells or tubes with falling amounts of substance.)
Series [4] concerns Staphylococcus aureus. The series can be described thus: Antimicrobial activity against Staphylococcus aureus assessed as reduction in microbial growth by broth microdilution method. The format is functional.
Series [5] deals with Escherichia coli. Put plainly: Antibacterial activity against Escherichia coli ATCC 25922 assessed as reduction in bacterial cell growth measured for 18 hrs by Mueller-Hinton broth based two-fold serial dilution method. The format is functional.
Series [6] in a line: Hemolytic activity in mouse erythrocyte incubated for 1 hr by microplate reader analysis. Type of series: toxicity, cell-based. The following applies: erythrocytes.
For a further series, the system named is Pseudomonas aeruginosa. Put plainly: Antibacterial activity against Pseudomonas aeruginosa ATCC 27853 assessed as reduction in bacterial cell growth measured for 18 hrs by Mueller-Hinton broth based two-fold serial dilution method. The format is functional.
Another series concerns Klebsiella pneumoniae. Put plainly: Antibacterial activity against Klebsiella pneumoniae ATCC 700603 assessed as reduction in bacterial cell growth measured for 18 hrs by Mueller-Hinton broth based two-fold serial dilution method. The format is functional.
Series [7] has as its system Staphylococcus aureus. Put plainly: Antibacterial activity against Staphylococcus aureus ATCC 25923 assessed as reduction in bacterial cell growth measured for 18 hrs by Mueller-Hinton broth based two-fold serial dilution method. Type of series: functional.
Series [8] can be described thus: Hemolytic activity in mouse Red blood cells incubated for 1 hr by microplate reader assay. The format is toxicity, cell-based, Erythrocyte. The following applies: red blood cells.
For another series, the system named is Bacillus subtilis. Put plainly: Antibacterial activity against Bacillus subtilis ATCC 23857 assessed as reduction in bacterial cell growth measured for 18 hrs by Mueller-Hinton broth based two-fold serial dilution method. The format is functional.

For `CC(C)C[C@H](NC(=O)CN)C(=O)N[C@@H](CC(C)C)C(=O)N[C@@H](CCCCN)C(=O)N[C@@H](CCCNC(=N)N)C(N)=O` (H-GLLKR-NH2), the MIC was 53.2 µM (≈ 31.1 µg/mL) in the series with Escherichia coli [1] and above 53.2 µM in the series on Staphylococcus aureus [2].
In the case of `CC[C@H](C)[C@H](NC(=O)[C@H](CCCNC(=N)N)NC(=O)[C@H](CCCCN)NC(=O)[C@H](CC(C)C)NC(=O)[C@H](CC(C)C)NC(=O)CN)C(N)=O` (H-GLLKRI-NH2), the MIC with Escherichia coli [1] is 54.6 µM (≈ 38.1 µg/mL); in the series on Staphylococcus aureus [2], above 54.6 µM.
For `CC[C@H](C)[C@H](NC(=O)[C@H](CCCNC(=N)N)NC(=O)[C@H](CCCCN)NC(=O)[C@H](CC(C)C)NC(=O)[C@H](CC(C)C)NC(=O)CN)C(=O)N[C@@H](CCCCN)C(N)=O` (H-GLLKRIK-NH2), in that order: 33.9 µM (≈ 28 µg/mL) and above 33.9 µM.
The like results for `CC[C@H](C)[C@H](NC(=O)[C@H](CCCNC(=N)N)NC(=O)[C@H](CCCCN)NC(=O)[C@H](CC(C)C)NC(=O)[C@H](CC(C)C)NC(=O)CN)C(=O)N[C@@H](CCCCN)C(=O)N[C@H](C(N)=O)[C@@H](C)O` (H-GLLKRIKT-NH2) were, in that order, 24.8 µM (≈ 23 µg/mL) and above 24.8 µM.
On to `CC[C@H](C)[C@H](NC(=O)[C@H](CCCNC(=N)N)NC(=O)[C@H](CCCCN)NC(=O)[C@H](CC(C)C)NC(=O)[C@H](CC(C)C)NC(=O)CN)C(=O)N[C@@H](CCCCN)C(=O)N[C@H](C(=O)N[C@@H](CC(C)C)C(=O)N[C@@H](CC(C)C)C(=O)O)[C@@H](C)O` (H-GLLKRIKTLL-OH), for which the MIC was 41.4 µM (≈ 47.8 µg/mL) with Escherichia coli [1] and above 41.4 µM with Staphylococcus aureus [2].
Consider `CC[C@H](C)[C@H](NC(=O)[C@H](CCCNC(=N)N)NC(=O)[C@@H](N)CCCCN)C(=O)N[C@@H](CCCCN)C(=O)N[C@H](C(=O)N[C@@H](CC(C)C)C(=O)N[C@@H](CC(C)C)C(N)=O)[C@@H](C)O` (H-KRIKTLL-NH2), for which the figures for the MIC in the series with Escherichia coli [1] and in the series with Staphylococcus aureus [2] were 70.2 µM (≈ 61.1 µg/mL) and above 70.2 µM, respectively.
The like results for `CC[C@H](C)[C@H](NC(=O)[C@H](CCCNC(=N)N)NC(=O)[C@H](CCCCN)NC(=O)[C@@H](N)CC(C)C)C(=O)N[C@@H](CCCCN)C(=O)N[C@H](C(=O)N[C@@H](CC(C)C)C(=O)N[C@@H](CC(C)C)C(N)=O)[C@@H](C)O` (H-LKRIKTLL-NH2) were, in that order, 31.6 µM (≈ 31 µg/mL) and above 31.6 µM.
For the compound `CC[C@H](C)[C@H](NC(=O)[C@H](CCCNC(=N)N)NC(=O)[C@H](CCCCN)NC(=O)[C@H](CC(C)C)NC(=O)[C@@H](N)CC(C)C)C(=O)N[C@@H](CCCCN)C(=O)N[C@H](C(=O)N[C@@H](CC(C)C)C(=O)N[C@@H](CC(C)C)C(N)=O)[C@@H](C)O` (H-LLKRIKTLL-NH2), the MIC in the series with Escherichia coli [1] is 54.7 µM (≈ 60 µg/mL); in the series on Staphylococcus aureus [2] it was above 54.7 µM.
`CC[C@H](C)[C@H](NC(=O)[C@H](CCCNC(=N)N)NC(=O)[C@H](CCCCN)NC(=O)[C@H](CC(C)C)NC(=O)[C@H](CC(C)C)NC(=O)CNCC1CCCCC1)C(=O)N[C@@H](CCCCN)C(=O)N[C@H](C(=O)N[C@@H](CC(C)C)C(=O)N[C@@H](CC(C)C)C(N)=O)[C@@H](C)O` (H-[NCyclohexylmethylGly]LLKRIKTLL-NH2) returned an HC10 with Erythrocyte above 50 µM. Besides, the results for the MIC with Escherichia coli [3] and in the series with Staphylococcus aureus [4] were 25 µM and 50 µM, respectively.
The like results for `CC[C@H](C)[C@H](NC(=O)[C@H](CCCNC(=N)N)NC(=O)[C@H](CCCCN)NC(=O)[C@H](CC(C)C)NC(=O)[C@H](CC(C)C)NC(=O)CNCC(C)C)C(=O)N[C@@H](CCCCN)C(=O)N[C@H](C(=O)N[C@@H](CC(C)C)C(=O)N[C@@H](CC(C)C)C(N)=O)[C@@H](C)O` (H-[Nleu]LLKRIKTLL-NH2) were, in that order, above 50 µM, above 100 µM and above 100 µM.
For `CC[C@H](C)[C@H](NC(=O)[C@H](CCCNC(=N)N)NC(=O)[C@H](CCCCN)NC(=O)[C@H](CC(C)C)NC(=O)[C@H](CC(C)C)NC(=O)CNCc1ccccc1)C(=O)N[C@@H](CCCCN)C(=O)N[C@H](C(=O)N[C@@H](CC(C)C)C(=O)N[C@@H](CC(C)C)C(N)=O)[C@@H](C)O` (H-[Nphe]LLKRIKTLL-NH2), the HC10 in the series on Erythrocyte is above 50 µM. Moreover, the MIC was 50 µM in the series with Escherichia coli [3] and above 100 µM in the series with Staphylococcus aureus [4].
The like results for `CCC(C)NCC(=O)N[C@@H](CC(C)C)C(=O)N[C@@H](CC(C)C)C(=O)N[C@@H](CCCCN)C(=O)N[C@@H](CCCNC(=N)N)C(=O)N[C@H](C(=O)N[C@@H](CCCCN)C(=O)N[C@H](C(=O)N[C@@H](CC(C)C)C(=O)N[C@@H](CC(C)C)C(N)=O)[C@@H](C)O)[C@@H](C)CC` (some centres not stated) (H-[X2]LLKRIKTLL-NH2) were, in that order, above 50 µM, above 100 µM and above 100 µM.
`CC[C@H](C)[C@H](NC(=O)[C@H](CCCNC(=N)N)NC(=O)[C@H](CCCCN)NC(=O)[C@H](CC(C)C)NC(=O)[C@H](CC(C)C)NC(=O)CNCC(c1ccccc1)c1ccccc1)C(=O)N[C@@H](CCCCN)C(=O)N[C@H](C(=O)N[C@@H](CC(C)C)C(=O)N[C@@H](CC(C)C)C(N)=O)[C@@H](C)O` (H-[X3]LLKRIKTLL-NH2): the HC10 in the series with Erythrocyte is above 50 µM. The values for the MIC in the series on Escherichia coli [3] and with Staphylococcus aureus [4] were 12.5 µM and 25 µM, respectively.
`CCCCCCCCC(=O)NCC(=O)N[C@@H](CC(C)C)C(=O)N[C@@H](CC(C)C)C(=O)N[C@@H](CCCCN)C(=O)N(C)[C@@H](CCCNC(=N)N)C(=O)N[C@H](C(=O)N(C)[C@@H](CCCCN)C(=O)N[C@H](C(=O)N[C@@H](CC(C)C)C(=O)N[C@@H](CC(C)C)C(N)=O)[C@@H](C)O)[C@@H](C)CC` (Nonanoyl-GLLK[NMeR]I[NMeK]TLL-NH2): the MIC in the series with Escherichia coli [5] is 128 µM (≈ 169 µg/mL); in the series on Pseudomonas aeruginosa it was 32 µM (≈ 42.3 µg/mL); with Klebsiella pneumoniae it was above 128 µM; with Staphylococcus aureus [7] it was 128 µM (≈ 169 µg/mL); in the series with Bacillus subtilis it was 8 µM (≈ 10.6 µg/mL). The HC50 at 1 h in [6] and in series [8] was above 256 µM throughout.
For `CCCCCCCCC(=O)NCC(=O)N[C@@H](CC(C)C)C(=O)N[C@@H](CC(C)C)C(=O)N(C)[C@@H](CCCCN)C(=O)N[C@@H](CCCNC(=N)N)C(=O)N[C@H](C(=O)N(C)[C@@H](CCCCN)C(=O)N[C@H](C(=O)N[C@@H](CC(C)C)C(=O)N[C@@H](CC(C)C)C(N)=O)[C@@H](C)O)[C@@H](C)CC` (Nonanoyl-GLL[NMeK]RI[NMeK]TLL-NH2), the MIC in the series with Escherichia coli [5] is 128 µM (≈ 169 µg/mL); in the series with Pseudomonas aeruginosa, 32 µM (≈ 42.3 µg/mL); in the series with Klebsiella pneumoniae, above 128 µM; with Staphylococcus aureus [7], 128 µM (≈ 169 µg/mL); in the series with Bacillus subtilis, 16 µM (≈ 21.1 µg/mL). Also, the HC50 at 1 h in series [6] and in series [8] was above 256 µM in each case.
`CCCCCCCCCCCCCCC(=O)NCC(=O)N[C@@H](CC(C)C)C(=O)N[C@@H](CC(C)C)C(=O)N[C@@H](CCCCN)C(=O)N(C)[C@@H](CCCNC(=N)N)C(=O)N[C@H](C(=O)N(C)[C@@H](CCCCN)C(=O)N[C@H](C(=O)N[C@@H](CC(C)C)C(=O)N[C@@H](CC(C)C)C(N)=O)[C@@H](C)O)[C@@H](C)CC` (Pentadecanoyl-GLLK[NMeR]I[NMeK]TLL-NH2): the MIC in the series on Escherichia coli [5] came out at 16 µM (≈ 22.5 µg/mL); in the series with Pseudomonas aeruginosa it was 16 µM (≈ 22.5 µg/mL); with Klebsiella pneumoniae, 32 µM (≈ 45 µg/mL); in the series with Staphylococcus aureus [7], 16 µM (≈ 22.5 µg/mL); in the series on Bacillus subtilis it was 8 µM (≈ 11.2 µg/mL). The HC50 at 1 h in series [6] and in series [8] was 64 µM each time.

In general, MIC refers to the lowest concentration that inhibits growth of the organism. What is called HC50 is the concentration that lyses half of the red blood cells. Lower therefore signals stronger haemolysis.

Source of the values: ChEMBL document CHEMBL5608163, “Structure modification of anoplin for fighting resistant bacteria” (Eur J Med Chem, 2024).
